Results on 36 compounds are retold here after patent publication US20110282056A1, “PROTEIN KINASE INHIBITORS AND USE THEREOF” (priority 2008, published 2011).

Holding throughout (assay type): biochemical
One experiment deals with T1, VEGFR3 (Homo sapiens, UniProt P35916).
T1 construct: purchased Millpore Corp. (Millipore) 14-681
Put plainly: VEGFR3 enzyme activity assay (Caliper LC3000 mobility shift). The settings on record: 400 uM ATP (Km), 0.4 nM VEGFR3, 90 minutes at RT. The protocol: (§1) Enzyme activity for VEGFR3, VEGFR2 and Flt3 were measured on the Caliper Life Sciences LC3000 (Hopkinton, Mass.). The system utilizes the principle of electroosmotic flow to separate and quantify the amount of phosphorylated-Fluorescein-labelled-peptide (product) from unphosphorylated-Fluorescein-labelled peptide (substrate). The amount of product and substrate are determined by measuring the peak heights from the electropherogram. The enzyme activity is then quantified by dividing the amount of product by the sum of the product and substrate. The inhibitory activity of a sample is measured by comparing the enzyme activity in the presence of sample versus the enzyme activity in the presence of dimethylsufoxide (DMSO). Specific assay conditions for each enzyme are listed below:
VEGFR3 assay: The peptide substrate at 1 uM (FITC-KKKKEEIYFFF-CONH2; synthesized at Tufts University, Boston, Mass.) was incubated with 400 uM of ATP, corresponding to the Michaelis-Menten (Km) constant of the enzyme/substrate reaction, and 0.4 nM of VEGFR3 (Millpore Corp., Cat. No. 14-681) for 90 minutes at RT. After 90 minutes, the reaction was stopped by the addition of 10 mM EDTA. The substrate and product were then separated on the LC3000.

In the next experiment the target is T2, VEGFR2 (Homo sapiens, UniProt P35968).
T2 construct: purchased BPS Bioscience; San Diego, Calif; 40301
Put plainly: VEGFR2 enzyme activity assay (Caliper LC3000 mobility shift). The settings on record: 160 uM ATP (Km), 1 nM VEGFR2, 90 minutes at RT. The protocol: as §1
VEGFR2 assay: The peptide substrate at 1 uM (5-FL-EEPLYWSFPAKKK-CONH2; synthesized at Tufts University, Boston, Mass.) was incubated with 160 uM of ATP, corresponding to the Michaelis-Menten (Km) constant of the enzyme/substrate reaction, and 1 nM of VEGFR2 (BPS Bioscience; San Diego, Calif.; Cat. No. 40301) for 90 minutes at RT. After 90 minutes, the reaction was stopped by the addition of 10 mM EDTA. The substrate and product were then separated on the LC3000.

A further experiment addresses T3, Flt3 (Homo sapiens, UniProt P36888).
T3 construct: purchased BPS Bioscience; San Diego, Calif; 40225
T3 sequence (P36888 27-993): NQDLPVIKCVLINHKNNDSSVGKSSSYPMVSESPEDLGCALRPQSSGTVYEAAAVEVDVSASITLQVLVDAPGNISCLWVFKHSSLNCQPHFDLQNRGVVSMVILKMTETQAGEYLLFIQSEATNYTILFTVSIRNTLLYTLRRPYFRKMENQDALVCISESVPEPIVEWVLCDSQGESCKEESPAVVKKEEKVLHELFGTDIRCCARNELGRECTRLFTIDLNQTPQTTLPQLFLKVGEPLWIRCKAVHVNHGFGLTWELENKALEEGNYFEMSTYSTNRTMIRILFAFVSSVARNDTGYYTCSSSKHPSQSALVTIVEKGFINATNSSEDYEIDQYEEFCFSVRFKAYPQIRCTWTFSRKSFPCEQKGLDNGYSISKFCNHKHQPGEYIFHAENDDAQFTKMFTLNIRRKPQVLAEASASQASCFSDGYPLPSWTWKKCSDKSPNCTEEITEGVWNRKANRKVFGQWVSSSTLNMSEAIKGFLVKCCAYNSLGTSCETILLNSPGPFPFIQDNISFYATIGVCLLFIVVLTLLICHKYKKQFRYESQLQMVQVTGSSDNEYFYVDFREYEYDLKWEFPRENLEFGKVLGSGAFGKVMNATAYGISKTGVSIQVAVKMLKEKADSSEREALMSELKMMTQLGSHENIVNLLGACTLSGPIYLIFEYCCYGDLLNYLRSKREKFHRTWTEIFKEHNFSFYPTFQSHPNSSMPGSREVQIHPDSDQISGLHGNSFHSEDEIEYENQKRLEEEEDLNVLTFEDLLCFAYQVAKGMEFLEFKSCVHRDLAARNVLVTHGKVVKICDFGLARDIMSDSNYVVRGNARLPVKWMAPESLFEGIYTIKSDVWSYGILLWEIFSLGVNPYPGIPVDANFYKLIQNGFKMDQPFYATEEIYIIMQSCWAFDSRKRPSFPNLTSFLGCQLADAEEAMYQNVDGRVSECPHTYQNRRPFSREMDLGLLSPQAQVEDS
Put plainly: Flt3 enzyme activity assay (Caliper LC3000 mobility shift). Particulars: 350 uM ATP (Km), 3 nM Flt3, 90 minutes at RT. As for the experimental part: as §1
Flt3 assay: The peptide substrate at 1 uM (FITC-AHA-UEAIYAAPFAKKK-CONH2; synthesized at Tufts University, Boston, Mass.) was incubated with 350 uM of ATP, corresponding to the Michaelis-Menten (Km) constant of the enzyme/substrate reaction, and 3 nM of Flt3 (BPS Bioscience; San Diego, Calif.; Cat. No. 40225) for 90 minutes at RT. After 90 minutes, the reaction was stopped by the addition of 10 mM EDTA. The substrate and product were then separated on the LC3000.

The structures appear in SMILES notation.

By IC50 is commonly meant the midpoint of a concentration-inhibition curve.

T1 sequence (P35916 25-1363): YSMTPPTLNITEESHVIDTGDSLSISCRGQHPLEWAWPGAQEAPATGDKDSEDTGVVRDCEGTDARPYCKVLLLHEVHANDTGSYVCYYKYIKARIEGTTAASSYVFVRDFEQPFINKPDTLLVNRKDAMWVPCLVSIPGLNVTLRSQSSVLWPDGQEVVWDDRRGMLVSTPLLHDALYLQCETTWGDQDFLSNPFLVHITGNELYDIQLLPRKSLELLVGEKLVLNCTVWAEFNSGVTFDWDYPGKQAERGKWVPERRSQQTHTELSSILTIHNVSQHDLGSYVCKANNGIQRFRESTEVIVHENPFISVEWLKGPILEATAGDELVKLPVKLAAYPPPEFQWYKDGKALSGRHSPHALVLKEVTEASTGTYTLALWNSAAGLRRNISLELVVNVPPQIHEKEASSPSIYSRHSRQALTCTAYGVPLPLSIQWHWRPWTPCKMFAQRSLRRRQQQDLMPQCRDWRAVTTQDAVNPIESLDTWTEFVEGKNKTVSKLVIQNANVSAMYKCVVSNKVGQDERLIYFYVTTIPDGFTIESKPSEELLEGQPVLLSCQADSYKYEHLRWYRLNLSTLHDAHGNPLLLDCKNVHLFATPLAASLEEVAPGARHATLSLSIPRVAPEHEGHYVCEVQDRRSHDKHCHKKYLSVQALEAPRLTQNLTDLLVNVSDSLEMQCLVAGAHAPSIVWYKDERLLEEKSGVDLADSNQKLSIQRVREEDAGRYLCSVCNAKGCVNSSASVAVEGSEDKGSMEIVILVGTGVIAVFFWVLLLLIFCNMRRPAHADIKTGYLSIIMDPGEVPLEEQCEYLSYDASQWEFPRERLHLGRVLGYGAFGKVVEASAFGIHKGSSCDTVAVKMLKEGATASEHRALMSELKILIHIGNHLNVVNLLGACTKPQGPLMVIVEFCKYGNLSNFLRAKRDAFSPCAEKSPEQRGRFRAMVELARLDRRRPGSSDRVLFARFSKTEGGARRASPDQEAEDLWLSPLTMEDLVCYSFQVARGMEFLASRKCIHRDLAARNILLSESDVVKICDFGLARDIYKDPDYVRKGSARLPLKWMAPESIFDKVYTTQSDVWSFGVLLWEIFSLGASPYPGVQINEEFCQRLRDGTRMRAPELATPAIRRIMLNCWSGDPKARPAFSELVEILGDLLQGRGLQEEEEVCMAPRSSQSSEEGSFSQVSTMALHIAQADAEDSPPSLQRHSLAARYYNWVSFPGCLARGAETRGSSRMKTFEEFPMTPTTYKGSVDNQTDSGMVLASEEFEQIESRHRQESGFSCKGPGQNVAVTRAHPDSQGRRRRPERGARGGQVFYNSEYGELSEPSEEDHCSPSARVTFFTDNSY
T2 sequence (P35968 20-1356): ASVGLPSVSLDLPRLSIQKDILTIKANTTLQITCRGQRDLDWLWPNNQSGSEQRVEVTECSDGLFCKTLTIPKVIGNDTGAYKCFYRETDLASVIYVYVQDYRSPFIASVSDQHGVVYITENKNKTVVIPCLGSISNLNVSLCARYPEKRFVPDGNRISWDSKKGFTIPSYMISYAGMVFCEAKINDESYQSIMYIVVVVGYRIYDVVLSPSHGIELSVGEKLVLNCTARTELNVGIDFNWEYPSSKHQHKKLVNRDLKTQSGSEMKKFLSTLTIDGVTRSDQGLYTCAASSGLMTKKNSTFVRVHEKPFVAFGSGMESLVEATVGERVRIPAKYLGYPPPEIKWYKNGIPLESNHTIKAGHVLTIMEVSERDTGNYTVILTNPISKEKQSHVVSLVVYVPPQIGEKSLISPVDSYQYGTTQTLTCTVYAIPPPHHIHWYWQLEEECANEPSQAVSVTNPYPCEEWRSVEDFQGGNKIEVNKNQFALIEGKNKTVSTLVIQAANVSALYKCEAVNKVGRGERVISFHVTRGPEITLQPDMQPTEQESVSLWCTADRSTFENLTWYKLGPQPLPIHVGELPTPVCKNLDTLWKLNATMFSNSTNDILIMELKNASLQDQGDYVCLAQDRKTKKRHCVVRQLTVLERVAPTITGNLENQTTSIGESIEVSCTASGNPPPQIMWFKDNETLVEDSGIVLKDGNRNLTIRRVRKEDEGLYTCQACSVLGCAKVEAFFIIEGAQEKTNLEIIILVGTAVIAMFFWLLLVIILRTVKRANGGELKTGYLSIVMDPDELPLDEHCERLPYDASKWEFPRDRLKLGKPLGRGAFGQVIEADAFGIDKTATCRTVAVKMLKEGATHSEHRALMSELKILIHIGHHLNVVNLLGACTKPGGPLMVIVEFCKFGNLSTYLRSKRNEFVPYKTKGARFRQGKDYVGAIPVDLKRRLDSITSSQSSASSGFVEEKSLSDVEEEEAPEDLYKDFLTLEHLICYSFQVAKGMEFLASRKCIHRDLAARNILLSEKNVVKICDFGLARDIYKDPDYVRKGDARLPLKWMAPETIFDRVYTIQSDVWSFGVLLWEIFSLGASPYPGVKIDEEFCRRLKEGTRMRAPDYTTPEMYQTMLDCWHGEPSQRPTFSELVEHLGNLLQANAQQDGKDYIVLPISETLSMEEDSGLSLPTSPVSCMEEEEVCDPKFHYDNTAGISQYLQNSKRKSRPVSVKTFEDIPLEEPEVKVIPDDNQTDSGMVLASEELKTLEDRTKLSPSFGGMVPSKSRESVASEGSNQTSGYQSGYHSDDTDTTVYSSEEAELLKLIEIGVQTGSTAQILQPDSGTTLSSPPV

`Nc1ccc(C#Cc2cnc3[nH]ccc3c2)cc1` [compound 79]: the values for the 50% inhibitory concentration (IC50) on VEGFR3, on VEGFR2 and on Flt3 were over 1 µM, over 1 µM and 0.1 to 1 µM, respectively.
Turning to `Fc1ccc(C#Cc2ccnc3[nH]ccc23)cc1` [compound 80], the 50% inhibitory concentration (IC50) at VEGFR3, on VEGFR2 and on Flt3 was over 1 µM in each case.
`CS(=O)(=O)c1ccc(C#Cc2ccnc3[nH]ccc23)cc1` [compound 81]: the IC50 at VEGFR3, on VEGFR2 and on Flt3 was over 1 µM throughout.
On to `C(#Cc1ccnc2[nH]ccc12)c1cccnc1` [compound 82], for which the IC50 on VEGFR3, on VEGFR2 and at Flt3 was over 1 µM in each case.
Regarding `C(#Cc1ccnc2[nH]ccc12)c1cncnc1` [compound 83], the IC50 on VEGFR3, on VEGFR2 and at Flt3 was over 1 µM in each case.
Consider `COc1cccnc1C#Cc1ccnc2[nH]ccc12` [compound 84], for which the IC50 at VEGFR3, at VEGFR2 and on Flt3 was over 1 µM throughout.
In the case of `COc1ccc(C#Cc2ccnc3[nH]ccc23)cc1OC` [compound 85], the IC50 at VEGFR3, at VEGFR2 and at Flt3 was over 1 µM in each case.
Regarding `C(#Cc1ccnc2[nH]ccc12)c1ccccn1` [compound 86], the IC50 at VEGFR3, at VEGFR2 and on Flt3 was over 1 µM throughout.
As for `C(#Cc1ccnc2[nH]ccc12)c1ccncc1` [compound 87], the IC50 at VEGFR3, at VEGFR2 and at Flt3 was over 1 µM throughout.
On to `C(#Cc1ccnc2[nH]ccc12)c1ccc2cc[nH]c2c1` [compound 88], for which the IC50 on VEGFR3, at VEGFR2 and at Flt3 was over 1 µM each time.
As to `COc1ccc(C#Cc2ccnc3[nH]ccc23)cc1` [compound 89], the IC50 at VEGFR3, at VEGFR2 and at Flt3 was over 1 µM each time.
As for `N#Cc1cncc(C#Cc2ccnc3[nH]ccc23)c1` [compound 91], the IC50 at VEGFR3, at VEGFR2 and at Flt3 was over 1 µM throughout.
Consider `C(#Cc1ccnc2[nH]ccc12)c1cccc(-n2cccc2)c1` [compound 92], for which the concentration for half-maximal inhibition (IC50) at VEGFR3, on VEGFR2 and on Flt3 was over 1 µM throughout.
On to `C(#Cc1ccnc2[nH]ccc12)c1ncccn1` [compound 93], for which the 50% inhibitory concentration (IC50) at VEGFR3, at VEGFR2 and at Flt3 was over 1 µM throughout.
For the compound `Cc1cc(C#Cc2ccnc3[nH]ccc23)ccc1C#N` [compound 94], the IC50 at VEGFR3, on VEGFR2 and on Flt3 was over 1 µM in each case.
With `C#Cc1ccc(C#Cc2ccnc3[nH]ccc23)cc1` [compound 95], the IC50 on VEGFR3, on VEGFR2 and at Flt3 was over 1 µM throughout.
On to `C#Cc1ccnc2[nH]ccc12` [compound 96], for which the IC50 on VEGFR3, at VEGFR2 and on Flt3 was over 1 µM each time.
For `C(#Cc1ncnc2sc3c(c12)CCCC3)c1ccccc1` [compound 97], the IC50 at VEGFR3, on VEGFR2 and at Flt3 was over 1 µM each time.
For the compound `C(#Cc1ccnc2[nH]ccc12)c1cccc(-c2ccccc2)c1` [compound 98], the IC50 on VEGFR3, at VEGFR2 and on Flt3 was over 1 µM throughout.
In the case of `Nc1cccc(C#Cc2ccnc3[nH]ccc23)c1` [compound 99], the IC50 at VEGFR3, at VEGFR2 and at Flt3 was over 1 µM in each case.
For `N#Cc1ccc(C#Cc2ccnc3[nH]ccc23)cc1` [compound 100], the IC50 at VEGFR3, on VEGFR2 and on Flt3 was over 1 µM in each case.
For `C(#Cc1ccnc2[nH]ccc12)c1ccccc1-c1cccs1` [compound 101], the IC50 at VEGFR3, on VEGFR2 and at Flt3 was over 1 µM each time.
In the case of `CC(C)Oc1cccc(C#Cc2ccnc3[nH]ccc23)c1` [compound 102], the IC50 on VEGFR3, on VEGFR2 and at Flt3 was over 1 µM each time.
Regarding `C(#Cc1ccnc2[nH]ccc12)c1cccc(Nc2ccccc2)c1` [compound 104], the IC50 on VEGFR3, on VEGFR2 and at Flt3 was over 1 µM throughout.
Regarding `FC(F)(F)c1ccccc1C#Cc1cnc2[nH]ccc2c1` [compound 105], the IC50 on VEGFR3, on VEGFR2 and at Flt3 was over 1 µM throughout.
For the compound `COC(=O)c1cccc(C#Cc2ccnc3[nH]ccc23)n1` [compound 106], the IC50 at VEGFR3, at VEGFR2 and on Flt3 was over 1 µM each time.
As to `FC(F)Oc1ccc(C#Cc2ccnc3[nH]ccc23)cc1` [compound 107], the IC50 at VEGFR3, at VEGFR2 and on Flt3 was over 1 µM each time.
With `C(#Cc1cnc2[nH]ccc2c1)c1ccccc1` [compound 108], the half-inhibitory concentration (IC50) on VEGFR3, at VEGFR2 and on Flt3 was over 1 µM in each case.
Regarding `C[Si](C)(C)C#Cc1ncnc2[nH]ccc12` [compound 109], the half-inhibitory concentration (IC50) at VEGFR3, at VEGFR2 and on Flt3 was over 1 µM throughout.
`N#Cc1ccc(C#Cc2ccnc3[nH]ccc23)cn1` [compound 110]: the IC50 at VEGFR3, at VEGFR2 and at Flt3 was over 1 µM in each case.
In the case of `C#Cc1ncnc2[nH]ccc12` [compound 111], the half-inhibitory concentration (IC50) at VEGFR3, at VEGFR2 and at Flt3 was over 1 µM in each case.
For the compound `C[Si](C)(C)C#Cc1ncnc2sc3c(c12)CCCC3` [compound 112], the IC50 on VEGFR3, on VEGFR2 and on Flt3 was over 1 µM each time.
In the case of `O=C(NCc1ccccc1C#Cc1ccnc2[nH]ccc12)Nc1ccccc1` [compound 113], the half-inhibitory concentration (IC50) on VEGFR3, at VEGFR2 and on Flt3 was over 1 µM each time.
`Cc1nc(-c2ccc(C#Cc3ccnc4[nH]ccc34)cc2)no1` [compound 114]: the half-maximal inhibitory concentration (IC50) on VEGFR3, on VEGFR2 and on Flt3 was over 1 µM each time.
For `CC(=O)c1ccc(C#Cc2ccnc3[nH]ccc23)nc1` [compound 115], the IC50 at VEGFR3, at VEGFR2 and on Flt3 was over 1 µM each time.
Take `FC(F)(F)c1cccc(C#Cc2ccnc3[nH]ccc23)c1` [compound 116]: the IC50 at VEGFR3, on VEGFR2 and at Flt3 was over 1 µM throughout.
